Measured values published in the supplement of paper PMC10949913.

Tests used:
Settings in all cases: 48 h
CU-ACC1 [1] = test: area under concentration-response curve (viability) (AUC (a.u.)); higher = less active
In short: (§1)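 AC50 and area under the curve values derive from fitted concentration-response curves, restricted to inhibitory or non-responding curve classes. The curves came from three adrenocortical carcinoma cell lines in 1,536-well plates, each receiving 23 nL of every library compound at 11 concentrations. Viability was read by CellTiter-Glo luminescence after 48 h, normalised per plate to vehicle and empty-well controls.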

NCI-H295R [2] = test: as above
In short: as §1

CU-ACC2 [3] = test: as above
In short: as §1

CU-ACC1 [4] = test: AC50 viability; higher = less potent
In short: as §1

CU-ACC2 [5] = test: AC50 viability; higher = less potent
In short: as §1

NCI-H295R [6] = test: AC50 viability; higher = less potent
In short: as §1

SMILES | area under concentration-response curve (CU-ACC1 [1]) | area under concentration-response curve (NCI-H295R [2]) | area under concentration-response curve (CU-ACC2 [3]) | AC50 viability (CU-ACC1 [4]) | AC50 viability (CU-ACC2 [5]) | AC50 viability (NCI-H295R [6])
CN1\C=N/C2=CC=C(NC3=CC(=CC=C3C)NC(=O)C4=CC(=CC=C4)C(C)(C)C#N)C=C2C1=O | 445 | 518 | 499 | 0.0934 µM | 8.33 µM | –
CC[C@@]1(O)C(=O)OCc2c1cc1n(c2=O)Cc2cc3c(CN(C)C)c(O)ccc3nc2-1.Cl | 428 | 488 | 483 | 16.6 µM | 16.6 µM | –
COc1cc(F)c(F)c(Nc2ccc(I)cc2F)c1N[S+](=O)([O-])C1(C[C@H](O)CO)CC1 | 421 | – | 476 | 16.6 µM | 6.61 µM | –
C/C=C/C/C=C/CCC(=O)[C@H]1O[C@H]1C(N)=O | 474 | – | 554 | 20.9 µM | 23.5 µM | –
COC1=CC(c2cc3ccccc3[nH]2)=N/C1=C/c1[nH]c(C)cc1C | 410 | – | 495 | 37.2 µM | 33.2 µM | –
O=C(N[C@@H](c1ccccc1)[C@@H]1CCCCN1)c1cccc(C(F)(F)F)c1Cl | 371 | 212 | 454 | 10.5 µM | 33.2 µM | –
CC1=C(/C=C/C(C)=C/C=C/C(C)=C/C(=O)Nc2ccc(O)cc2)C(C)(C)CCC1 | 232 | 179 | 170 | 0.235 µM | 0.295 µM | –
COc1cccc([C@@H](C)NCCCc2ccccc2Cl)c1 | 462 | – | 584 | 20.9 µM | 23.5 µM | –
Cc1c(NC(=O)c2cc(C(N)=O)nc3cc(F)ccc23)c(C(F)(F)F)nn1Cc1ccc(C#N)cc1 | 460 | 462 | 443 | 1.66 µM | 10.5 µM | –
CC(C)(O)CC[C@@H](O)[C@](C)(O)[C@H]1CC[C@@]2(O)C/3=C/C(=O)[C@@H]4C[C@@H](O)[C@@H](O)C[C@]4(C)[C@H]3CC[C@]12C | 192 | – | 233 | 0.132 µM | 0.372 µM | –
Cc1cc2c(C(C)C)c(O)c(O)c(C=O)c2c(O)c1-c1c(C)cc2c(C(C)C)c(O)c(O)c(C=O)c2c1O | 529 | – | 596 | 26.3 µM | 23.5 µM | –
CN\1C(=O)/C(=C(\N=C1NC[C@@H](N)CC2=CC=CC=C2)C3=CC=NC=C3)C4=CC5=C(C=CC=C5)C=C4 | 484 | – | 571 | 29.5 µM | 37.2 µM | –
CCCNC(=O)[C@H]1O[C@@H]1C(=O)N[C@H](C(=O)N1CCC[C@H]1C(=O)OC)C(C)CC (some centres undefined) | 449 | 494 | 504 | 16.6 µM | 18.6 µM | –
CC(O)c1cc(C(=O)N[C@@H](C)Cn2ccc(-c3ccc(C#N)c(Cl)c3)n2)n[nH]1 (some centres undefined) | 454 | – | 488 | 33.2 µM | 20.9 µM | –
COc1ccc(CNc2nc(N(CCO)CCO)nc3c2ncn3C(C)C)cc1 | 438 | – | 502 | 14.8 µM | 7.42 µM | –
O=C(CCCCCCC(=O)Nc1ccc([C@H]2O[C@@H](CSc3nc(-c4ccccc4)c(-c4ccccc4)o3)C[C@@H](c3ccc(CO)cc3)O2)cc1)NO | 488 | 492 | 573 | 2.7 µM | 3.4 µM | –
CN(C)C1CCN(C(=O)c2ccc(NC(=O)Nc3nc(N4CCOCC4)nc(N4CCOCC4)n3)cc2)CC1 | 393 | 464 | 458 | 3.32 µM | 1.86 µM | –
COc1ncc(Nc2ncc(C(C)N3CCN([S+](C)(=O)[O-])CC3)cc2-c2nc(C)nc(N)n2)cc1F (centres undefined) | 226 | 179 | 258 | 0.00263 µM | 0.0934 µM | –
CC[C@@]1(O)C(=O)OCC/2=C1/C=C3\N(CC4=CC5=CC(=CC=C5N=C34)O)C2=O | 271 | 518 | 436 | 2.09 µM | 0.742 µM | –

SMILES | area under concentration-response curve (CU-ACC1 [1]) | area under concentration-response curve (NCI-H295R [2]) | area under concentration-response curve (CU-ACC2 [3]) | AC50 viability (CU-ACC1 [4]) | AC50 viability (CU-ACC2 [5]) | AC50 viability (NCI-H295R [6])
CCCNCC(O)COc1ccccc1C(=O)CCc1ccccc1 (centres undefined) | 417 | – | 451 | 23.5 µM | 23.5 µM | –
CN[C@@H](C)C(=O)N[C@H]1CCCC[C@H]2CC[C@@H](C(=O)N[C@@H](c3ccccc3)c3cn(CCCCc4ccc(CCCCn5cc([C@@H](NC(=O)[C@@H]6CC[C@@H]7CCCC[C@H](NC(=O)[C@H](C)NC)C(=O)N76)c6ccccc6)nn5)cc4)nn3)N2C1=O | 260 | – | 303 | 0.166 µM | 0.332 µM | –
COc1cc2c(cc1OC(C)C)[C@H](c1ccc(Cl)cc1)N(c1ccc(N(C)C[C@H]3CC[C@H](N4CCN(C)C(=O)C4)CC3)cc1)C(=O)C2 | 427 | – | 510 | 16.6 µM | 20.9 µM | –
O=C(CC12CC3CC(CC(C3)C1)C2)Nc1cccc2nc(NCCNCCO)ccc12 | 473 | – | 537 | 26.3 µM | 23.5 µM | –
CC(C)Nc1cc(-c2c[nH]c(C(=O)N[C@H](CO)c3cccc(Cl)c3)c2)c(Cl)cn1 | 467 | – | 545 | 23.5 µM | 18.6 µM | –
O=C(CCCCCCC(=O)Nc1ccccc1)NO | 415 | – | 474 | 2.95 µM | 3.32 µM | –
COc1cc2c(N3CCN(C(=O)Nc4ccc(OC(C)C)cc4)CC3)ncnc2cc1OCCCN1CCCCC1 | 401 | – | 457 | 16.6 µM | 7.42 µM | –
C[C@H]1CNC(=O)c2cnn3ccc(nc23)N[C@H](C)c2cc(F)ccc2O1 | 523 | 454 | 475 | – | 6.61 µM | 2.35 µM
COc1cccc2c1C(=O)c1c(O)c3c(c(O)c1C2=O)C[C@@](O)(C(=O)CO)C[C@@H]3O[C@H]1C[C@H](N)[C@H](O)[C@H](C)O1 | 461 | 452 | 485 | – | 5.9 µM | 16.6 µM
Cc1cc(Nc2nc(N[C@@H](C)c3ccc(F)cc3)c(C#N)cc2F)n[nH]1 | 516 | – | 467 | 18.6 µM | 20.9 µM | –
C=CC(=O)Nc1cccc(Oc2nc(Nc3ccc(N4CCN(C)CC4)c(F)c3)nc3[nH]ccc23)c1 | 504 | 492 | 557 | – | 18.6 µM | 20.9 µM
O=c1[nH]c2ccccc2n1C1CCN(Cc2ccc(-c3nc4cc5nc[nH]c5cc4nc3-c3ccccc3)cc2)CC1 | 558 | 492 | 604 | – | 20.9 µM | 20.9 µM
CC(C)(C)C[C@H]1N[C@@H](C(=O)N[C@H]2CC[C@H](O)CC2)[C@H](c2cccc(Cl)c2F)[C@@]12C(=O)Nc1cc(Cl)ccc12 | 473 | – | 461 | 1.48 µM | 23.5 µM | –
O=C(NOCC1CC1)c1ccc(F)c(F)c1Nc1ccc(I)cc1Cl | 485 | – | 527 | 13.2 µM | 16.6 µM | –
C[C@@H](O)[C@@H](C)Oc1nc(Nc2ccc([S+](=N)([O-])C3CC3)cc2)ncc1C(F)(F)F (some centres undefined) | 476 | – | 567 | 23.5 µM | 26.3 µM | –
C[S+]([O-])c1ccc(-c2nc(-c3ccc(F)cc3)c(-c3ccncc3)[nH]2)cc1 (centres undefined) | 393 | – | 420 | 18.6 µM | 16.6 µM | –
Cn1ncc(Cl)c1-c1cc(C(=O)N[C@H](CN)Cc2ccc(F)c(F)c2)sc1Cl | 488 | 473 | 550 | – | 14.8 µM | 14.8 µM
COC1=CC=C2Nc3cc(Cl)ccc3C(N=C3C=C(CN4CCCC4)C(=O)C(CN4CCCC4)=C3)=C2N1 | 477 | – | 528 | 18.6 µM | 23.5 µM | –
Cc1c(O)cccc1C(=O)NC(CSc1ccccc1)C(O)CN1CC2CCCCC2CC1C(=O)NC(C)(C)C (centres undefined) | 406 | 561 | 550 | – | 20.9 µM | 23.5 µM

SMILES | area under concentration-response curve (CU-ACC1 [1]) | area under concentration-response curve (NCI-H295R [2]) | area under concentration-response curve (CU-ACC2 [3]) | AC50 viability (CU-ACC1 [4]) | AC50 viability (CU-ACC2 [5]) | AC50 viability (NCI-H295R [6])
CCC[C@H](NC(=O)/C(C#N)=C/c1cccc(Br)n1)c1ccccc1 | 468 | – | 565 | 26.3 µM | 26.3 µM | –
Oc1ccc2ccccc2c1SSc1c(O)ccc2ccccc12 | 487 | – | 583 | 41.7 µM | 23.5 µM | –
CC(C)(C)C(=O)OCOP(=O)(COCCn1cnc2c(N)ncnc21)OCOC(=O)C(C)(C)C | 456 | – | 527 | 8.33 µM | 7.42 µM | –
COC1=C(OCCCN2CCOCC2)C=C3N=CC=C(OC4=CC=C(C=C4F)\C5=C\N=C(\NC6=CC=C(F)C=C6)N(C)C5=O)C3=C1 | 474 | 400 | 528 | – | 18.6 µM | 8.33 µM
CCCCC(C)(C)[C@H](O)/C=C/[C@H]1[C@H](O)CC(=O)[C@@H]1C/C=C\CCCC(=O)O | 325 | 211 | 307 | – | 0.105 µM | 0.00372 µM
O=C1c2ccccc2-[n+]2ccc3c([nH]c4ccccc43)c21 | 379 | 374 | 381 | – | 2.35 µM | 2.35 µM
CCc1nc(C(N)=O)c(Nc2ccc(N3CCC(N4CCN(C)CC4)CC3)c(OC)c2)nc1NC1CCOCC1 | 533 | 500 | 477 | – | 13.2 µM | 4.17 µM
N=C(NCCCCCCNC(=N)NC(=N)Nc1ccc(Cl)cc1)NC(=N)Nc1ccc(Cl)cc1 | 511 | 443 | 573 | – | 23.5 µM | 14.8 µM
CC[C@]12\C=C/CN3CC[C@]4([C@@H](N(C)C5=C4C=C(C(=C5)OC)[C@]6(CC7C[C@H](CN(C7)CC8=C6[NH]C9=C8C=CC=C9)C(C)(F)F)C(=O)OC)[C@](O)([C@@H]1OC(C)=O)C(=O)OC)[C@H]23 (some centres undefined) | 468 | 394 | 533 | – | 5.9 µM | 1.48 µM
N#Cc1ccc2c(c1)CN([S+](=O)([O-])c1cccs1)[C@H](Cc1ccccc1)CN2Cc1cnc[nH]1 | 350 | 485 | 405 | – | 0.833 µM | 8.33 µM
CN1C(=O)c2sccc2N(C)c2nc(Nc3ccc([S+](N)(=O)[O-])cc3)ncc21 | 460 | 431 | 467 | – | 14.8 µM | 5.25 µM
COc1ccc([S+](=O)([O-])N(C(C)=O)c2ccccc2/C=C/c2cc[n+]([O-])cc2)cc1 | 482 | 506 | 557 | – | 20.9 µM | 5.25 µM
O=C(c1ccc(Nc2nc(C3CC3)cn3c(-c4cn[nH]c4)cnc23)c(F)c1)N1CCOCC1 | 366 | – | 343 | 3.32 µM | 14.8 µM | –
OC1=CC2=C(C(=C1)O)C(=O)\C=C(/O2)C3=CC=CC=C3 | 397 | 437 | 416 | – | 1.66 µM | 0.263 µM
CC[P](CC)(CC)=[Au][S][C@@H]1O[C@H](COC(C)=O)[C@@H](OC(C)=O)[C@H](OC(C)=O)[C@H]1OC(C)=O | 439 | 400 | 445 | – | 1.86 µM | 2.09 µM
Cc1ccc(C(=O)Nc2ccc(CN3CCN(C)CC3)c(C(F)(F)F)c2)cc1C#Cc1cnc2[nH]ncc2c1 | 441 | 392 | 427 | – | 8.33 µM | 8.33 µM
CC[C@@H]([C@H](C)O)N1\N=C/N(C1=O)C2=CC=C(C=C2)N3CCN(CC3)C4=CC=C(OCC5CO[C@@](C5)(C[N]6C=NC=N6)C7=C(F)C=C(F)C=C7)C=C4 (some centres undefined) | 403 | 423 | 447 | – | 7.42 µM | 8.33 µM
CC[S+](=O)([O-])N1CC(CC#N)(n2cc(-c3ncnc4[nH]ccc34)cn2)C1 | 472 | 513 | 530 | – | 20.9 µM | 18.6 µM
CN1C/C=C/CCOc2cccc(c2)-c2ccnc(n2)Nc2cccc(c2)C1 | 208 | 164 | 165 | – | 0.0525 µM | 0.235 µM
